# Assay results as given in patent US12590099B2, “Inhibitors of histone deacetylase useful for the treatment or prevention of HIV infection” (Merck Sharp & Dohme LLC, priority 2018, dated 2026).
# Where two headings read alike, the source gives them in different places.
# Tests used:
# KARN cells (Jurkat 2C4) = assay: cells; type: cell-based
# Procedure: KARN cells (Jurkat 2C4) were licensed from the laboratory of Dr. John Karn, Case Western Reserve University, School of Medicine. […] An atmosphere of 5% CO2 and 90% humidity was used for all culture work.
# Day 1: After the 3-4 day growth period, the cells were transferred from the T175 flask to a 50 ml conical tube and gently pelleted at 1000 rpm for 5 minutes. […] These flasks were returned to the incubator.
# Day 2: Cell Preparation: The next day, the cells were transferred from each T175 flask to an individual 50 ml conical tube and gently pelleted at 1000 rpm for 5 minutes. The cells were gently resuspended in assay media (30 ml) and pelleted again. […] The cells were counted using the ViCell (Beckman Coulter) and diluted as necessary. […] The plates were covered and returned to the incubator prior to compound addition.
# The reference compounds, DMSO and SAHA were then added to the compound plate. […] The final high concentration for SAHA and the test compounds in the assays was 40 μM. The final DMSO concentration in all wells was 0.4%. The minimal induction reference compound used was DMSO and the maximal induction reference compound used was SAHA (2 μM final concentration in the assay).
# Day 3: The luciferase detection reagent was prepared by transferring the contents of one bottle of Steady-Glo buffer to one bottle of Steady-Glo aubstrate (Steady-Glo Luciferase Assay System, Promega, catalog number E2520), followed by gently mixing until the substrate was thoroughly dissolved and the solution was equilibrated to room temperature. […] The Steady-Glo Reagent was added to the plates (30 μl/well), which were then covered with a black lid and incubated for 10 minutes at room temperature. The plates were then read for luminescence on an Envision (Perkin Elmer) using the ultrasensitive mode (US LUM), […] and 384-well aperture. Luminescence counts in the DMSO reference wells were considered as 0% induction, while those in the 2 μM SAHA reference wells were considered as 100% induction. Dose response curves were plotted as test compound concentration (X-axis) vs. percent activation (Y-axis) using a 4-parameter fit based on the Levenberg-Marquardt algorithm.
# HDAC6 = target: T1, HDAC6 (Homo sapiens, UniProt Q9UBN7); assay: Human HDAC enzyme inhibitor Fluor-de-Lys assay, HDAC6; type: biochemical
# T1 sequence (Q9UBN7 1-1215): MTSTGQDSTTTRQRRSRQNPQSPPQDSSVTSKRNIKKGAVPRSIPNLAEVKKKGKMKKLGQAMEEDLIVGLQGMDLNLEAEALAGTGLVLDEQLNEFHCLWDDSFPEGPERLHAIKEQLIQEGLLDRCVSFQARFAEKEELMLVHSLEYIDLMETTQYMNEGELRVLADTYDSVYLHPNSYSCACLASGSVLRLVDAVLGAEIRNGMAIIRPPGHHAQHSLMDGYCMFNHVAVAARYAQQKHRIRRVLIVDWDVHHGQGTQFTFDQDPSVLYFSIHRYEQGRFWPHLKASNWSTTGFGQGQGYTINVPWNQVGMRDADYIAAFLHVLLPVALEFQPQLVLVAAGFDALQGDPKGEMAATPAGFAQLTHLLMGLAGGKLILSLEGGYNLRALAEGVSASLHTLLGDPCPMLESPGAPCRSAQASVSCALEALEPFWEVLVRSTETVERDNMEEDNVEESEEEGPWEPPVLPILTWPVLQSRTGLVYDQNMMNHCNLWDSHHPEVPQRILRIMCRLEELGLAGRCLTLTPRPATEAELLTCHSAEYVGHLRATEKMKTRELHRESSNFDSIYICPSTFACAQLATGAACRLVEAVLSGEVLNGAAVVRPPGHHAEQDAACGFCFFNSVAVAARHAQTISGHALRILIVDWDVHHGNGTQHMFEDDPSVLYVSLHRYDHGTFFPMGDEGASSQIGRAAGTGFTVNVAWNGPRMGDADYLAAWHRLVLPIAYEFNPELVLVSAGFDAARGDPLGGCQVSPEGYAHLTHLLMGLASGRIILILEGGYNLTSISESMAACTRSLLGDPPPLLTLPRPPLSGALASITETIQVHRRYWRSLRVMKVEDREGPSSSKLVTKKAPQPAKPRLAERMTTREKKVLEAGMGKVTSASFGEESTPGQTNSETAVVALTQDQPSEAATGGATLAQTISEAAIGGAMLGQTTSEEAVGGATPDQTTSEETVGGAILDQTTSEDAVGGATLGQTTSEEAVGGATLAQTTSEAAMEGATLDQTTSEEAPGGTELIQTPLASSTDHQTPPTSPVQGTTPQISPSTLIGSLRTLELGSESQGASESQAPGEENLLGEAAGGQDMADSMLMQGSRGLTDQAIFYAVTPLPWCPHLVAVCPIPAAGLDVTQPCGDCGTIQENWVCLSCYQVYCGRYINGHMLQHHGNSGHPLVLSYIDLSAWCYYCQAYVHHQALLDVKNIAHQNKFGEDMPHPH
# Procedure: (§1) Human HDAC Enzyme Inhibitor Fluor-De-Lys Assay
# (§2) Recombinant human HDAC8 (BML-SE145-0100) and HDAC10 (BML-SE559-0050) enzymes, HDAC substrates BML-KI104 and BML-KI178, and HDAC developer solutions BML-KI105 and BML-KI176 were purchased from Enzo Life Sciences. […] HDAC inhibitor suberoylanilide hydroxamic acid (SAHA) was obtained from Indofine and trichostatin A (TSA) was obtained from Sigma-Aldrich.
# (§3) The histone deacetylase activities of HDAC1, HDAC2, HDAC3, HDAC6, and HDAC8 were measured in modified FLUOR DE LYS assays in 384-well format. In this assay, HDAC enzymes are initially incubated with an ε-acetyl (or -trifluoroacetyl)-L-lysine-containing substrate with a C-terminal amide having aminomethylcoumarin as the amine component. HDACs cleave the ε-acetyl group, rendering the resulting product susceptible to AMC cleavage by trypsin. The released AMC is then detected by its fluorescence.
# (§4) The HDAC3/SMRT assay employed buffer B, consisting of 20 mM HEPES, pH 8.0, 1 mM MgCl2, 50 mM NaCl, 2.7 mM KCl, 0.05% BSA, 0.005% Tween 20, and 10 μM IP4. […] The HDAC8 assay employed buffer D, consisting of 20 mM HEPES, pH 8.0, 1 mM MgCl2, 100 mM NaCl, 20 mM KCl, 0.10% n-octyl-β-D-glucoside (Anatrace) and 0.05% BSA. All steps were performed at room temperature (23° C.). The assay was performed by pre-incubating serial dilutions of test compounds with the target HDAC prior to initiation with substrate. Each compound was titrated in a 10-point dose response, using a 1:3 fold dilution scheme, with 0.15 ul of solution added by ECH0555 to the plate, followed by the addition of 20 μl of the appropriate HDAC isoform diluted in appropriate assay buffer. […] Final conditions used for each assay were: 1. HDAC 1, 0.3 nM total enzyme, 20 μM substrate BML-KI104; 2. […] HDAC 3/SMRT, 0.3 nM total enzyme, 20 μM substrate BML-KI104; 4. […] The reactions were stopped and developed by addition of 30 ul of HDAC developer solution containing a saturating level of HDAC inhibitor as follows: 1.
# Recombinant human HDAC8 = target: T2, Recombinant human HDAC8 (Homo sapiens, UniProt Q9BY41); assay: Human HDAC enzyme inhibitor Fluor-de-Lys assay, HDAC8; type: biochemical
# T2 construct: purchased Enzo Life Sciences BML-SE145-0100
# T2 sequence (Q9BY41 1-377): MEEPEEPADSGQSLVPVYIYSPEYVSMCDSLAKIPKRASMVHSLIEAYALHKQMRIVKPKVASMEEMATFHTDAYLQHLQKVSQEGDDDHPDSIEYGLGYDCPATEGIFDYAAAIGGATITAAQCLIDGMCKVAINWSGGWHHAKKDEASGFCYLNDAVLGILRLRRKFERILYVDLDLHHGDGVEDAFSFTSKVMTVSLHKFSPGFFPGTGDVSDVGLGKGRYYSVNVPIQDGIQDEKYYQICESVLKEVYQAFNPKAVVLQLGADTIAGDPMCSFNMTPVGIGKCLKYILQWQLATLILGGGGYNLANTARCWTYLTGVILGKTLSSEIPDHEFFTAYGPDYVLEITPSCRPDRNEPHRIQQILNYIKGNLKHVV
# Procedure: as §1, §2, §3, §4
# [1] = read-out: Karn EC50 (nM) 0.1% NHS, 0.1% normal human serum
# [2] = read-out: Karn EC50 (nM) 5% NHS, 5% normal human serum
# [3] = Homo sapiens, Jurkat, read-out: Karn EC50 (nM) 0.1% NHS, 0.1% normal human serum, luciferase induction, 100% = 2 μM SAHA
# [4] = Homo sapiens, Jurkat, read-out: Karn EC50 (nM) 5% NHS, 5% normal human serum, luciferase induction, 100% = 2 μM SAHA
# [5] = recombinant human HDAC8, Fluor-de-Lys assay
# [6] = Homo sapiens, Jurkat, read-out: Karn EC50 (nM) 0.1% NHS, 0.1% normal human serum
# [7] = Homo sapiens, Jurkat, read-out: Karn EC50 (nM) 5% NHS, 5% normal human serum
Structure (SMILES),IC50 (HDAC6),IC50 (Recombinant human HDAC8),EC50 (KARN cells (Jurkat 2C4); [3]),EC50 (KARN cells (Jurkat 2C4); [4]),EC50 (KARN cells (Jurkat 2C4); [6]),EC50 (KARN cells (Jurkat 2C4); [7]),also measured
"CCC(=O)CCCCC[C@H](NC(=O)C1CC12CCC(N(C)C)CC2)c1ncc(-c2cc3ccccc3nc2OC)[nH]1 (single isomer, unassigned) [Compound 127]",364 nM,0.076 µM,,,,,EC50 (KARN cells (Jurkat 2C4); [1]): 37 nM; EC50 (KARN cells (Jurkat 2C4); [2]): 60 nM
"CCC(=O)CCCCC[C@H](NC(=O)C1CC12CCC(N(C)C)CC2)c1ncc(-c2cc3ccccc3nc2OC)[nH]1 (single isomer, unassigned) [Compound 128]",759 nM,5.58 µM,,,,,EC50 (KARN cells (Jurkat 2C4); [1]): 442 nM; EC50 (KARN cells (Jurkat 2C4); [2]): 1140 nM
"CCC(=O)CCCCC[C@H](NC(=O)[C@@H]1CC12CCN(C(N)=O)CC2)c1ncc(-c2cc3ccccc3nc2OC)[nH]1 (single isomer, unassigned) [Compound 318]",,,861 nM,4600 nM,,,"IC50 (HDAC6; HDAC6, Fluor-de-Lys assay): 551 nM; IC50 (Recombinant human HDAC8; [5]): 1.2 µM"
"CCC(=O)CCCCC[C@H](NC(=O)[C@H]1CC12CCN(C(N)=O)CC2)c1ncc(-c2cc3ccccc3nc2OC)[nH]1 (single isomer, unassigned) [Compound 319]",,,1560 nM,9850 nM,,,"IC50 (HDAC6; HDAC6, Fluor-de-Lys assay): 1170 nM; IC50 (Recombinant human HDAC8; [5]): 2.27 µM"
"CCC(=O)CCCCC[C@H](NC(=O)[C@@H]1CC12CCN(C)CC2)c1ncc(-c2cc3ccccc3nc2OC)[nH]1 (single isomer, unassigned) [Compound 320]",,,339 nM,1370 nM,,,"IC50 (HDAC6; HDAC6, Fluor-de-Lys assay): 709 nM; IC50 (Recombinant human HDAC8; [5]): 14.6 µM"
"CCC(=O)CCCCC[C@H](NC(=O)[C@H]1CC12CCN(C)CC2)c1ncc(-c2cc3ccccc3nc2OC)[nH]1 (single isomer, unassigned) [Compound 321]",,,27 nM,83 nM,,,"IC50 (HDAC6; HDAC6, Fluor-de-Lys assay): 158 nM; IC50 (Recombinant human HDAC8; [5]): 3.38 µM"
"CCC(=O)CCCCC[C@H](NC(=O)[C@@H]1CC12CCN(C)CC2)c1ncc(-c2cc3ccccc3nc2O)[nH]1 (single isomer, unassigned) [Compound 324]",,,1170 nM,1210 nM,,,
"CCC(=O)CCCCC[C@H](NC(=O)[C@H]1CC12CCN(C)CC2)c1ncc(-c2cc3ccccc3nc2O)[nH]1 (single isomer, unassigned) [Compound 325]",,,154 nM,216 nM,,,
CCC(=O)CCCCC[C@H](NC(=O)[C@H]1CC12CCOCC2)c1ncc(-c2cc3ccccc3nc2OC)[nH]1 [Compound 63],619 nM,3.09 µM,,,234 nM,1790 nM,
CCC(=O)CCCCC[C@H](NC(=O)[C@@H]1CC12CCOCC2)c1ncc(-c2cc3ccccc3nc2OC)[nH]1 [Compound 64],3580 nM,6.35 µM,,,647 nM,5040 nM,
CCC(=O)CCCCC[C@H](NC(=O)[C@H]1CC12CCN(CC)CC2)c1ncc(-c2ccc3c(=O)n(CC)ccc3c2)[nH]1 [Compound 92],2980 nM,6.26 µM,,,52 nM,56 nM,
CCC(=O)CCCCC[C@H](NC(=O)[C@H]1CC12CCN(C)CC2)c1ncc(-c2cccnc2OC)[nH]1 [Compound 102],1950 nM,3.26 µM,,,290 nM,301 nM,
CCC(=O)CCCCC[C@H](NC(=O)[C@H]1CC12CCN(CC)CC2)c1ncc(-c2cc3ccccc3nc2OC)o1 [Compound 124],137 nM,16 µM,,,111 nM,151 nM,
CCC(=O)CCCCC[C@H](NC(=O)[C@H]1CC12CCN(C)CC2)c1ncc(-c2cc3ncccc3nc2OC)[nH]1 [Compound 142],3670 nM,5.12 µM,,,311 nM,544 nM,
CCC(=O)CCCCC[C@H](NC(=O)[C@@H]1CC12CCN(C)CC2)c1ncc(-c2ccc3ncccc3c2)[nH]1 [Compound 281],,,2140 nM,2170 nM,,,
CCC(=O)CCCCC[C@H](NC(=O)[C@H]1CC12CCN(C)CC2)c1ncc(-c2ccc3ncccc3c2)[nH]1 [Compound 282],,,,,,,"EC50 (KARN cells (Jurkat 2C4); read-out: Karn EC50 (nM) 0.1% NHS, 0.1% normal human serum, luciferase induction, 100% = 2 μM SAHA): 294 nM; EC50 (KARN cells (Jurkat 2C4); read-out: Karn EC50 (nM) 5% NHS, 5% normal human serum, luciferase induction, 100% = 2 μM SAHA): 247 nM"
CCC(=O)CCCCC[C@H](NC(=O)[C@H]1C[C@]12CCN(C)C2)c1ncc(-c2cc3ccccc3nc2OC)[nH]1 [Compound 327],,,73 nM,232 nM,,,IC50 (Recombinant human HDAC8; [5]): 3.87 µM
